pIC50: −log10 of the molar value. Like-named read-outs stand apart in the source and are kept apart here.
Target: T1, human CTPS1 (Homo sapiens, UniProt P17812)
T1 construct: purchased Proteros biostructures GmbH
T1 sequence (P17812 1-591): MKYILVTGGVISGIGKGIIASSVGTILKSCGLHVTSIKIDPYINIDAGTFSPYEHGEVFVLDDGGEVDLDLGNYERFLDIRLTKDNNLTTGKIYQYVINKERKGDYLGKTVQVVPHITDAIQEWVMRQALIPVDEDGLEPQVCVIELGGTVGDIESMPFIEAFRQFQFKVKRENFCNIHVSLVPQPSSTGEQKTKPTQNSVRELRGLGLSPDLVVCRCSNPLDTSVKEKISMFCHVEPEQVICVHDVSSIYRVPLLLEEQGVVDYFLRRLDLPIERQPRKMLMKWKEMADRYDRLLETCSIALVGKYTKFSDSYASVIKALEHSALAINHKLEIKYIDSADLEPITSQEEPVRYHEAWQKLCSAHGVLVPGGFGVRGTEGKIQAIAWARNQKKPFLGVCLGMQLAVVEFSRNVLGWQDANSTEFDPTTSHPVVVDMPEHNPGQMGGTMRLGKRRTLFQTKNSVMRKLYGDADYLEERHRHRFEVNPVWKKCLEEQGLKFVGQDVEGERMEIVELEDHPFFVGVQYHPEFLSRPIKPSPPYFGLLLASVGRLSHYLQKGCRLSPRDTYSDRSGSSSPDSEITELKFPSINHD
Assay: Human CTPS1 enzyme inhibition (ADP-Glo Max assay)
Assay type: biochemical
Conditions: read-out: CTPS1 (Human CTPS1 Enzyme Inhibition data grouped by potency range, IC50)
Description: Biological Example 1—Human CTPS1 Enzyme Inhibition
The enzyme inhibitory activities of compounds invented against the target of interest were determined using the ADP-Glo™ Max assay (Promega, UK). Assays for human CTPS1 were performed in 1× assay buffer containing 50 mM Tris, 10 mM MgCl2, 0.01% Tween-20, pH to 8.0 accordingly. Finally, immediately before use, L-cysteine was added to the 1× assay buffer to a final concentration of 2 mM. All reagents are from Sigma-Aldrich unless specified otherwise. Human full length active C-terminal FLAG-Hiss-tag CTPS1 (UniProtKB-P17812, CTPS[1-591]-[…]) was obtained from Proteros biostructures GmbH.
3× human CTPS1 protein was prepared in 1× assay buffer to the final working protein concentration required for the reaction. A 2 uL volume per well of 3× human CTPS1 protein was mixed with 2 uL per well of 3× test compound (compound prepared in 1× assay buffer to an appropriate final 3× compound concentration respective to the concentration response curve designed for the compounds under test) for 10 minutes at 25° C. The enzymatic reaction was then initiated by addition of a 2 uL per well volume of a pre-mixed substrate mix (UltraPure ATP from ADP-Glo™ Max kit (0.31 mM), GTP (0.034 mM), UTP (0.48 mM) and L-glutamine (0.186 mM)) and the mixture was incubated for an appropriate amount of time within the determined linear phase of the reaction at 25° C. under sealed plate conditions with constant agitation at 500 revolutions per minute (rpm). ADP-Glo™ Max reagent was added for 60 minutes (6 μL per well) and subsequently ADP-Glo™ Max development reagent was added for 60 minutes (12 uL per well) prior to signal detection in a microplate reader (EnVision® Multilabel Reader, Perkin Elmer). Following each reagent addition over the course of the assay, assay plates were pulse centrifuged for 30 seconds at 500 rpm.
In all cases, the enzyme converts ATP to ADP and the ADP-Glo™ Max reagent subsequently depletes any remaining endogenous ATP in the reaction system. The ADP-Glo™ Max detection reagent converts the ADP that has been enzymatically produced back into ATP and using ATP as a substrate together with luciferin for the enzyme luciferase, light is generated which produces a detectable luminescence. […] The percentage inhibition produced by each concentration of compound was calculated using the equation shown below: […]
Percentage inhibition was then plotted against compound concentration, and the 50% inhibitory concentration (IC50) was determined from the resultant concentration-response curve.

Row | Structure (SMILES) | pIC50 (Table 23, ADP-Glo Max assay) | further results
1 | CC(C)(C(=O)Nc1ccc(-c2cccnc2)cc1)c1cccc(NS(=O)(=O)C2CC2)n1 [Example P179] | 5.00 to 6.00 | –
2 | CCOc1cncc(-c2ccc(NC(=O)C3(c4ccnc(NS(=O)(=O)C5CC5)n4)CC4(C3)OCCO4)nc2)n1 [Example P258] | – | pIC50 (Table 24, ADP-Glo Max assay): ≥ 7.00
3 | CCOc1cncc(-c2ccc(NC(=O)C(C)(C)c3cc(C)nc(NS(=O)(=O)C4CC4)n3)nc2)n1 [Example P123] | 6.00 to 7.00 | –
4 | CC(C)(C(=O)Nc1ccc(-c2cccc(C#N)c2)cc1)c1ccnc(NS(=O)(=O)C2CC2)n1 [Example P62] | 5.00 to 6.00 | –
5 | CCOc1cncc(-c2ccc(NC(=O)C(C)(C)c3ccnc(NS(=O)(=O)C4CC4)n3)cn2)n1 [Example P126] | ≥ 7.00 | –
6 | CCOc1cncc(-c2cc(C)c(NC(=O)C(C)(C)c3ccnc(NS(=O)(=O)C4CC4)n3)cc2C)n1 [Example P46] | 6.00 to 7.00 | –
7 | CCOc1cncc(-c2ccc(NC(=O)C3(c4ccnc(NS(C)(=O)=O)n4)CCNCC3)nc2)n1 [Example P138] | 6.00 to 7.00 | –
8 | CC(C)(C(=O)Nc1ccc(-c2cncc(Cl)c2)cc1)c1cccc(NS(=O)(=O)C2CC2)n1 [Example P176] | 5.00 to 6.00 | –
9 | CCC(F)(C(=O)Nc1ccc(-c2cncc(Cl)c2)cn1)c1ccnc(NS(=O)(=O)C2CC2)n1 (stereo not shown) [Example P149] | ≥ 7.00 | –
10 | CC(C)(C(=O)Nc1ccc(-c2cncnc2)cc1)c1ccnc(NS(=O)(=O)C2CC2)n1 [Example P50] | 5.00 to 6.00 | –
11 | CCOc1cncc(-c2ccc(NC(=O)C3(c4ccnc(NS(=O)(=O)C5(C#N)CC5)n4)CCOCC3)nc2)n1 [Example P285, 4-(2-((1-cyanocyclopropane)-1-sulfonamido)pyrimidin-4-yl)-N-(5-(6-ethoxypyrazin-2-yl)pyridin-2-yl)tetrahydro-2H-pyran-4-carboxamide] | – | pIC50 (Table 25, compounds where R1 is substituted by CN): ≥ 7.00
12 | CC(C)(C(=O)Nc1ccc(-c2cncc(F)c2)cc1)c1cccc(NS(=O)(=O)C2CC2)n1 [Example P177] | 5.00 to 6.00 | –
13 | CCOc1cncc(-c2cnc(NC(=O)C(C)(C)c3ccnc(NS(=O)(=O)C4CC4)n3)c(F)c2)n1 [Example P27] | ≥ 7.00 | –
14 | COc1cncc(-c2ccc(NC(=O)Cc3ccnc(NS(=O)(=O)C4CC4)n3)cc2)n1 [Example P19] | ≥ 7.00 | –
15 | COc1cncc(-c2ccc(NC(=O)C(C)(C)c3ccnc(NS(=O)(=O)C4CC4)n3)cc2)c1 [Example P56] | 6.00 to 7.00 | –
16 | CCOc1cncc(-c2ccc(NC(=O)C(C)(C)c3cc(C)nc(NS(=O)(=O)C4CC4)n3)cc2)n1 [Example P134] | 6.00 to 7.00 | –
17 | CC(C)(C(=O)Nc1ccc(-c2cncc(OC3CC3)n2)cn1)c1ccnc(NS(=O)(=O)C2CC2)n1 [Example P32] | ≥ 7.00 | –
18 | CCC(C(=O)Nc1ccc(-c2cncc(C3CC3)n2)cc1F)c1ccnc(NS(=O)(=O)C2CC2)n1 (stereo not shown) [Example P160] | ≥ 7.00 | –
19 | COc1cncc(-c2ccc(NC(=O)Cc3cccc(NS(=O)(=O)C4CC4)n3)cc2)c1 [Example P170] | 6.00 to 7.00 | –
20 | CCOc1cncc(-c2ccc(NC(=O)C(C)(C)c3ccnc(NS(=O)(=O)CC)n3)c(F)c2)n1 [Example P72] | 6.00 to 7.00 | –
21 | COc1cncc(-c2ccc(NC(=O)C(C)(C)c3cccc(NS(=O)(=O)C4CC4)n3)cc2)n1 [Example P184] | 6.00 to 7.00 | –
22 | CCOc1cncc(-c2ccc(NC(=O)C(C)(C)c3cc(C(F)(F)F)nc(NS(=O)(=O)C4CC4)n3)cc2)n1 [Example P135] | 6.00 to 7.00 | –
23 | CCOc1cncc(-c2ccc(NCC3(c4ccnc(NS(=O)(=O)C5CC5)n4)CCOCC3)cc2)n1 [Example P256] | – | pIC50 (Table 24, ADP-Glo Max assay): 6.00 to 7.00
24 | CC(C)(C(=O)Nc1ccc(-c2cncc(C(F)(F)F)n2)cc1)c1ccnc(NS(C)(=O)=O)n1 [Example P80] | 6.00 to 7.00 | –
25 | CC(C)(C(=O)Nc1ccc(-c2cccnc2)cn1)c1cccc(NS(=O)(=O)C2CC2)n1 [Example P175] | 5.00 to 6.00 | –

Row | Structure (SMILES) | pIC50 (Table 23, ADP-Glo Max assay) | further results
26 | CCOc1cncc(-c2ccc(NC(=O)C(C)(C)c3ccnc(NS(=O)(=O)C4CCC4)n3)c(C)c2)n1 [Example P24] | 6.00 to 7.00 | –
27 | CCC(C(=O)Nc1ccc(-c2cncc(C3CC3)n2)cn1)c1ccnc(NS(=O)(=O)C2CC2)n1 (stereo not shown) [Example P156] | ≥ 7.00 | –
28 | N#Cc1cncc(-c2ccc(NC(=O)Cc3cccc(NS(=O)(=O)C4CC4)n3)cc2)c1 [Example P168] | 6.00 to 7.00 | –
29 | CC(C)(C(=O)Nc1ccc(-c2cnccn2)cc1)c1ccnc(NS(=O)(=O)C2CC2)n1 [Example P71] | 5.00 to 6.00 | –
30 | CCOc1cncc(-c2cc(C)c(NC(=O)C(C)(C)c3ccnc(NS(=O)(=O)C4CC4)n3)cc2F)n1 [Example P45] | 6.00 to 7.00 | –
31 | CC(C)(C(=O)Nc1ccc(-c2cncc(F)c2)cc1)c1ccnc(NS(=O)(=O)C2CC2)n1 [Example P53] | 6.00 to 7.00 | –
32 | CCOc1cncc(-c2ccc(CNC3(c4ccnc(NS(=O)(=O)C5CC5)n4)CC3)c(F)c2)n1 [Example P255] | – | pIC50 (Table 24, ADP-Glo Max assay): 6.00 to 7.00
33 | CC(C)(C(=O)Nc1ccc(-c2cccnc2)cc1F)c1ccnc(NS(=O)(=O)C2CC2)n1 [Example P36] | 5.00 to 6.00 | –
34 | CCOc1cncc(-c2ccc(NC(=O)C(C)(C)c3cccc(NS(=O)(=O)C4CC4)n3)cc2)n1 [Example P183] | 6.00 to 7.00 | –
35 | CC(C)(C(=O)Nc1ccc(-c2cncc(Cl)n2)cc1)c1cccc(NS(=O)(=O)C2CC2)n1 [Example P182] | 6.00 to 7.00 | –
36 | C=C(C)c1cncc(-c2ccc(NC(=O)C(C)(C)c3ccnc(NS(=O)(=O)C4CC4)n3)nc2)n1 [Example P122, 2-(2-(cyclopropanesulfonamido)pyrimidin-4-yl)-2-methyl-N-(5-(6-(prop-1-en-2-yl)pyrazin-2-yl)pyridin-2-yl)propanamide] | 6.00 to 7.00 | –
37 | O=C(Cc1ccnc(NS(=O)(=O)C2CC2)n1)Nc1ccc(-c2cncc(OCC(F)(F)F)n2)cc1 [Example P20] | ≥ 7.00 | –
38 | CC(C)(C(=O)Nc1ccc(-c2cnccn2)cc1)c1cccc(NS(=O)(=O)C2CC2)n1 [Example P185] | 5.00 to 6.00 | –
39 | CCOc1cncc(-c2ccc(NC(=O)C(C)(C)c3cc(C(F)(F)F)nc(NS(=O)(=O)C4CC4)n3)nc2)n1 [Example P124] | 6.00 to 7.00 | –
40 | CC(C)(C(=O)Nc1ccc(-c2cncc(C(F)(F)F)n2)cn1)c1ccnc(NS(=O)(=O)C2CC2)n1 [Example P30] | ≥ 7.00 | –
41 | CC(C)Oc1cncc(-c2ccc(NC(=O)C(C)(C)c3ccnc(NS(=O)(=O)C4CC4)n3)cc2)n1 [Example P67] | ≥ 7.00 | –
42 | CCOc1cncc(-c2ccc(NC(=O)C(C)(C)c3ccnc(NS(=O)(=O)C4CC4)n3)c(C)c2C)n1 [Example P44] | 6.00 to 7.00 | –
43 | CCOc1cncc(-c2ccc(NC(=O)C(F)(F)c3ccnc(NS(=O)(=O)C4CC4)n3)c(F)c2)n1 [Example P117] | ≥ 7.00 | –
44 | CC(C)(C(=O)Nc1ccc(-c2cccnc2)cn1)c1ccnc(NS(=O)(=O)C2CC2)n1 [Example P29] | 5.00 to 6.00 | –
45 | CCOc1cncc(-c2ccc(NC(=O)C(C)(C)c3ccnc(NS(C)(=O)=O)n3)cc2)n1 [Example P81] | ≥ 7.00 | –
46 | CCOc1cccc(-c2ccc(NC(=O)C(C)(C)c3ccnc(NS(=O)(=O)C4CC4)n3)cc2)c1 [Example P63] | 4.70 to 5.00 | –
47 | CCOc1cncc(-c2ccc(NC(=O)C3(c4ccnc(NS(=O)(=O)C5CC5)n4)CCNCC3)nc2)n1 [Example P140] | 6.00 to 7.00 | –
48 | CC(C)Oc1cncc(-c2ccc(NC(=O)C(C)(C)c3ccnc(NS(=O)(=O)C4CC4)n3)c(F)c2)c1 [Example P35] | 6.00 to 7.00 | –
49 | O=C(Cc1ccnc(NS(=O)(=O)C2CC2)n1)Nc1ccc(-c2cncc(C(F)(F)F)n2)cc1 [Example P8, 2-(2-(Cyclopropanesulfonamido)pyrimidin-4-yl)-N-(4-(6-(trifluoromethyl)pyrazin-2-yl)phenyl)acetamide] | ≥ 7.00 | –

From US20230002352A1, “SULFONAMIDE DERIVATIVES AS CTPS1 INHIBITORS” (Step Pharma S.A.S., priority 2019, published 2023)
